Assay [1] deals with Panel leukemia (Carcinoma cell lines). In words: Effective dose for differentiation-inducing activity against human promyelocytic leukemia cells. It counts as functional, cell-based.
A short description of assay [2]: Ratio of the ED50 of compound to that of ED50 of retinoic acid, expressed as relative activity. It counts as functional.
For assay [3], the system named is Panel leukemia (Carcinoma cell lines). The experiment in a line: Effective dose for differentiation -inducing activity against human promyelocytic leukemia cells. It counts as functional. The note with it: read-out: ED50 (the source's name).

Activity calls are given as the source filed them. The rule behind the calls is not given here. Where only a bound is given, the exact number is not on record here.

For the compound `CC(C)c1ccc(NC(=O)c2ccc(C(=O)O)cc2)c(C(C)C)c1`, the ED50 result in assay [1] was “inactive”.

As for `O=C(O)c1ccc(C(=O)Nc2cccc3c2CCCC3)cc1`, the ED50 entry in assay [1] is “inactive”.

With `O=C(O)c1ccc(NC(=O)c2ccccc2)cc1`, the ED50 result in assay [1] was “inactive”.

Regarding `CC1(C)CCC(C)(C)c2cc(NC(=O)c3ccc(C(=O)O)cc3)c(N)cc21`, the Ratio in assay [2] was 0.011. In addition, the EC50 in assay [3] came to 560 nM.

For the compound `CC1(C)CCC(C)(C)c2c(NC(=O)c3ccc(C(=O)O)cc3)cccc21`, the Ratio in assay [2] was less than 0.0001. Also, the EC50 in assay [3] was more than 1000 nM.

Regarding `O=C(O)c1ccc(C(=O)Nc2cccc(C3CCCCC3)c2)cc1`, the Ratio in assay [2] was less than 0.0001. Moreover, the EC50 in assay [3] was more than 1000 nM.

For the compound `Cc1cc2c(cc1NC(=O)c1ccc(C(=O)O)cc1)C(C)(C)CCC2(C)C`, the Ratio in assay [2] worked out at 0.006. The EC50 in assay [3] is 350 nM.

As to `O=C(O)c1ccc(C(=O)Nc2cccc(-c3ccccc3)c2)cc1`, in assay [1], the ED50 result was “inactive”.

With `CC1(C)CCC(C)(C)c2cc([N+](=O)[O-])c(NC(=O)c3ccc(C(=O)O)cc3)cc21`, in assay [2], the Ratio was less than 0.001. Further, in assay [3], the EC50 was more than 10000 nM.

With `O=C(O)c1ccc(C(=O)Nc2ccc3c(c2)C2CCC3CC2)cc1`, the Ratio in assay [2] is less than 0.001. The EC50 in assay [3] was more than 10000 nM.

With `Cc1cccc(NC(=O)c2ccc(C(=O)O)cc2)c1`, in assay [1], the ED50 result is “inactive”.

Take `CC1(C)CCSc2ccc(NC(=O)c3ccc(C(=O)O)cc3)cc21`: the Ratio in assay [2] came to 0.051. Besides, in assay [3], the EC50 was 73 nM.

Regarding `CCc1ccc(NC(=O)c2ccc(C(=O)O)cc2)cc1CC`, the Ratio in assay [2] came out at 0.0077. The EC50 in assay [3] was 260 nM.

In the case of `CC12CCC(C)(CC1)c1cc(NC(=O)c3ccc(C(=O)O)cc3)ccc12`, the Ratio in assay [2] worked out at 0.059. Further, the EC50 in assay [3] amounted to 68 nM.

As to `CC(C)(C)c1cc(C(C)(C)C)c(NC(=O)c2ccc(C(=O)O)cc2)c(C(C)(C)C)c1`, in assay [1], the ED50 entry was “inactive”.

On to `CC1(C)CCC(C)(C)c2cc(NC(=O)c3ccc(C(=O)O)cc3)c(Br)cc21`, for which the Ratio in assay [2] is less than 0.0001. In assay [3], the EC50 was more than 1000 nM.

Take `CC(C)(C)c1ccc(NC(=O)c2ccc(C(=O)O)cc2)cc1`: the Ratio in assay [2] was less than 0.001. The EC50 in assay [3] is more than 10000 nM.

For `CC1(C)CCOc2ccc(NC(=O)c3ccc(C(=O)O)cc3)cc21`, the Ratio in assay [2] is less than 0.0001. In addition, the EC50 in assay [3] is more than 1000 nM.

`CC(C)(C)c1cccc(C(=O)Nc2ccc(C(=O)O)cc2)c1`: the Ratio in assay [2] is less than 0.001. Besides, the EC50 in assay [3] was more than 10000 nM.

For `CC1(C)CCC(C)(C)c2cc(NC(=O)c3ccc(C(=O)O)cc3)ccc21` [TAMIBAROTENE], the Ratio in assay [2] amounted to 3.5. Also, in assay [3], the EC50 came to 0.79 nM.

For the compound `O=C(O)c1ccc(C(=O)Nc2ccccc2)cc1`, in assay [1], the ED50 result is “inactive”.

Regarding `CC(C)c1cccc(NC(=O)c2ccc(C(=O)O)cc2)c1`, the Ratio in assay [2] came to 1.3. Also, in assay [3], the EC50 came out at 680 nM.

As for `CC(C)(C)c1ccc(C(=O)Nc2ccc(C(=O)O)cc2)cc1`, the Ratio in assay [2] is less than 0.001. The EC50 in assay [3] was more than 10000 nM.

Regarding `CC1=C(/C=C/C(C)=C/C=C/C(C)=C/C(=O)O)C(C)(C)CCC1` [TRETINOIN], the Ratio in assay [2] is 1. For the same compound, the EC50 in assay [3] was 2.4 nM.

Take `CC1(C)CCS(=O)(=O)c2ccc(C(=O)Nc3ccc(C(=O)O)cc3)cc21`: the ED50 result in assay [1] was “inactive”.

Take `CC(C)(C)c1cc(NC(=O)c2ccc(C(=O)O)cc2)cc(C(C)(C)C)c1`: in assay [2], the Ratio turned out to be 0.15. Besides, the EC50 in assay [3] was 36 nM.

In the case of `CC(C)c1cc(NC(=O)c2ccc(C(=O)O)cc2)cc(C(C)C)c1`, the Ratio in assay [2] was found to be 0.042. In assay [3], the EC50 is 38 nM.

Turning to `CC1(C)CCC(C)(C)c2cc(C(=O)Nc3ccc(C(=O)O)cc3)ccc21`, in assay [2], the Ratio is 7.2. Besides, the EC50 in assay [3] is 0.34 nM.

Regarding `CN(C)c1cccc(NC(=O)c2ccc(C(=O)O)cc2)c1`, the ED50 result in assay [1] was “inactive”.

Take `CC(C)c1ccccc1NC(=O)c1ccc(C(=O)O)cc1`: in assay [1], the ED50 result is “inactive”.

With `CCc1cccc(NC(=O)c2ccc(C(=O)O)cc2)c1`, the ED50 result in assay [1] is “inactive”.

`CC(C)(C)c1cccc(NC(=O)c2ccc(C(=O)O)cc2)c1`: the Ratio in assay [2] came out at 3.2. Moreover, in assay [3], the EC50 was 700 nM.

In the case of `CC(C)c1cccc(C(C)C)c1NC(=O)c1ccc(C(=O)O)cc1`, the ED50 result in assay [1] is “inactive”.

For `O=C(O)c1ccc(C(=O)Nc2cccc3ccccc23)cc1`, in assay [1], the ED50 entry was “inactive”.

For `CN(C(=O)c1ccc2c(c1)C(C)(C)CCC2(C)C)c1ccc(C(=O)O)cc1`, the Ratio in assay [2] was less than 0.0001. In addition, in assay [3], the EC50 is more than 1000 nM.

For the compound `CC(C)c1ccc(NC(=O)c2ccc(C(=O)O)cc2)cc1C(C)C`, in assay [2], the Ratio was 1.4. In addition, in assay [3], the EC50 was determined as 2.1 nM.

As to `O=C(O)c1ccc(C(=O)Nc2cccc(Br)c2)cc1`, the ED50 entry in assay [1] is “inactive”.

For `CC(C)c1ccc(NC(=O)c2ccc(C(=O)O)cc2)cc1`, the Ratio in assay [2] was determined as 9.8. Further, the EC50 in assay [3] turned out to be 910 nM.

Consider `CC1(C)CCOc2c(Cl)cc(C(=O)Nc3ccc(C(=O)O)cc3)cc21`, for which the Ratio in assay [2] is 0.037. Besides, the EC50 in assay [3] was 75 nM.

`CC1(C)CCOc2ccc(C(=O)Nc3ccc(C(=O)O)cc3)cc21`: the Ratio in assay [2] turned out to be 0.0035. In assay [3], the EC50 is 800 nM.

As for `CN(C(=O)c1ccc(C(=O)O)cc1)c1ccc2c(c1)C(C)(C)CCC2(C)C`, the Ratio in assay [2] is less than 0.0001. The EC50 in assay [3] is more than 1000 nM.

Regarding `CC(C)c1ccc(C(C)C)c(NC(=O)c2ccc(C(=O)O)cc2)c1`, in assay [1], the ED50 result is “inactive”.

On to `O=C(O)c1ccc(C(=O)Nc2ccc3ccccc3c2)cc1`, for which the ED50 entry in assay [1] is “inactive”. Besides, the Ratio in assay [2] turned out to be 3.5.

On to `CC(C)c1ccc(C(=O)Nc2ccc(C(=O)O)cc2)cc1C(C)C`, for which the Ratio in assay [2] stood at 0.04. For the same compound, the EC50 in assay [3] is 68 nM.

Regarding `CC(C)(C)c1cc(C(=O)Nc2ccc(C(=O)O)cc2)cc(C(C)(C)C)c1`, the Ratio in assay [2] was determined as 0.056. Further, the EC50 in assay [3] turned out to be 48 nM.

Values taken from ChEMBL document CHEMBL1124011, “Retinobenzoic acids. 1. Structure-activity relationships of aromatic amides with retinoidal activity” (1988).
